According to publication PMC8808565 (iScience, 2022):
“Also recorded” adds a separate entry of the source. No end group written: not given here.

Tests used:
[1] = system: various viruses, including coronaviruses; conditions: ref Kim et al., 2018; cited from earlier work
[2] = cationic, 41 amino acids; ref Sawai et al., 2001; cited from earlier work
[3] = target: recombinant SARS-CoV-2 spike receptor-binding domain (rRBD); assay: Surface plasmon resonance; conditions: read-out: KD (abstract, rounded)
[4] = system: CoV-2 spike-pseudotyped virus infection of ACE2-expressing HEK 293T cells; format: cell-based, SARS-CoV-2 (spike pseudotyped lentivirus); human cells
[5] = ref Koeninger et al., 2020; cited from earlier work
His-tagged rRBD = format: binding, SARS-CoV-2
[6] = system: VSVG-pseudotyped virus infection of ACE2-expressing HEK 293T cells; format: cell-based
RBD:ACE2 binding = format: cell-based, SARS-CoV-2 RBD; human ACE2
RBD = conditions: bilayer interferometry; ref Wang et al., 2021a; cited from earlier work

Substance	antiviral effect (in words) [1]	charge [2]	Kd [3] [nM]	effect on CoV-2 spike-mediated infection (in words) [4]	ratio of hemolytic concentration to IC50 (Hemolytic activity) [times]	concentration at which hemolytic activity begins [5] [µM]	co-precipitation with His-RBD (in words) (His-tagged rRBD)	inhibition of VSVG-pseudotyped virus infection (in words) [6]	effect on RBD:ACE2 binding (in words) (RBD:ACE2 binding)	binding interaction with RBD (in words) (RBD)
GIGDPVTCLKSGAICHPVFCPRRYKQIGTCGLPGTKCCKKP (disulfide (positions not given here)) [hBD-2, Human beta defensin 2]	interrupt viral infection of various viruses, including coronaviruses	+6	~2000	dose-dependently decreased entry of CoV-2 spike-mediated infection; also recorded: inhibited viral entry into ACE2-expressing HEK 293T cells in a dose-dependent manner	25	70	significant binding of hBD-2 to His-RBD	not VSVG-mediated infection; also recorded: no inhibition	preventing it from binding to ACE2-expressing cells; also recorded: competitively decreased RBD-ACE2 binding; also recorded: reduced RBD:ACE2 binding; also recorded: blocks spike-RBD:ACE2 binding	
LL-37										strong binding interaction
